Measured values published in the supplement of paper PMC10307832.

Columns and labels:
Experiment in all cases: relative viability (nuclei count vs DMSO), 5 days (fraction); higher = more cells survive
[1] = compound: C1=CC2=C(C=C(C(=C2N=C1)O)N=NC3=CC4=C(C=C3)C=C(C=C4)S(=O)(=O)O)S(=O)(=O)O
Procedure, shortened: (§1)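 Nuclei counted with MetaXpress define viability as the ratio of treated to vehicle wells, given as a median across plates. The lung cancer cell lines were in 1536-well plates, pinned with five √10-spaced library-drug doses and imaged at 4× after 5 days and Hoechst staining. Plates passed with control CV below 25% and at least one doubling.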

AT-7519 = compound: O=C(NC1CCNCC1)c1n[nH]cc1NC(=O)c1c(Cl)cccc1Cl [AT-7519]
Procedure, shortened: as §1

[2] = compound: C1=CC2=C(C=C(C(=C2N=C1)O)N=NC3=CC4=C(C=C3)C=C(C=C4)S(=O)(=O)O)S(=O)(=O)O + CC1(C)CCC(c2ccc(Cl)cc2)=C(CN2CCN(c3ccc(C(=O)NS(=O)(=O)c4ccc(N[C@H](CCN5CCOCC5)CSc5ccccc5)c(S(=O)(=O)C(F)(F)F)c4)cc3)CC2)C1 [Navitoclax] (partner 0.5 µM)
Procedure, shortened: (§2)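 Lung cancer cell lines were seeded in 1536-well plates and dosed by pin tool the next day, with either a single drug or a fixed anchor-drug dose combined with five library-drug doses (not always all listed) spaced in √10 steps. Five days later, one step fixed the cells and stained their nuclei (final 0.05% Triton X-100, 1% formaldehyde, 1 ug/ml Hoechst), and nuclei were counted on 4× images. Relative viability is the nuclei count in treated wells divided by the count in vehicle wells, and each value is the median of duplicate plates.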

[3] = compound: C1=CC2=C(C=C(C(=C2N=C1)O)N=NC3=CC4=C(C=C3)C=C(C=C4)S(=O)(=O)O)S(=O)(=O)O + COc1cc2c(Oc3ccc(NC(=O)C4(C(=O)Nc5ccc(F)cc5)CC4)cc3F)ccnc2cc1OCCCN1CCOCC1 [Foretinib] (partner 0.25 µM)
Procedure, shortened: as §2

Row | Cell Line | relative viability ([1]; 0.08 µM) | relative viability ([1]; 0.253 µM) | relative viability ([1]; 0.8 µM) | relative viability ([1]; 2.53 µM) | relative viability ([1]; 8 µM) | relative viability (AT-7519; 0.01 µM) | relative viability (AT-7519; 0.03162 µM) | relative viability (AT-7519; 0.3162 µM) | relative viability (AT-7519; 1 µM) | relative viability ([2]; first compound 0.08 µM) | relative viability ([2]; first compound 0.253 µM) | relative viability ([2]; first compound 0.8 µM) | relative viability ([2]; first compound 2.53 µM) | relative viability ([2]; first compound 8 µM) | relative viability ([3]; first compound 0.08 µM) | relative viability ([3]; first compound 0.253 µM) | relative viability ([3]; first compound 0.8 µM) | relative viability ([3]; first compound 2.53 µM) | relative viability ([3]; first compound 8 µM)
1 | NCI-H1666 | 1.04 | 1.03 | 0.991 | 0.966 | 1.02 | 0.948 | 0.906 | 0.99 | 0.752 | 0.87 | 0.91 | 0.962 | 1.14 | 0.842 | 1.05 | 0.962 | 0.962 | 0.958 | 0.747
2 | LC-2-ad | 1.02 | 0.902 | 0.978 | 0.995 | 0.945 | 0.996 | 0.99 | 1.01 | 0.909 | 0.516 | 0.517 | 0.507 | 0.402 | 0.521 | 1.13 | 0.874 | 0.966 | 0.906 | 0.865
3 | SK-LU-1 | 1.17 | 1.02 | 1.02 | 0.979 | 0.988 | 1.08 | 0.959 | 0.924 | 0.73 | 1.15 | 0.947 | 0.747 | 0.732 | 0.801 | 1.01 | 0.768 | 0.787 | 0.787 | 0.889
4 | ChaGo-K-1 | 1.03 | 0.905 | 0.937 | 1.02 | 0.901 | 1.01 | 0.926 | 0.996 | 0.942 | 0.933 | 0.955 | 0.968 | 1.06 | 1 | 0.953 | 0.986 | 0.855 | 1.02 | 0.927
5 | COR-L 105 | 0.988 | 0.78 | 0.95 | 1.06 | 0.865 | 0.924 | 0.933 | 0.769 | 0.54 | 0.905 | 0.7 | 0.779 | 0.75 | 0.843 | 0.961 | 0.94 | 1.03 | 1.02 | 0.886
6 | NCI-H1975 | 1.01 | 0.948 | 0.989 | 1.01 | 0.924 | 1.04 | 0.849 | 0.879 | 0.442 | 1.3 | 1.13 | 1.07 | 1.26 | 0.979 | 0.912 | 1.02 | 0.916 | 1.04 | 0.952
7 | Calu-6 | 1 | 1.02 | 0.962 | 1.01 | 1.01 | 1.06 | 0.943 | 1.11 | 0.593 | 0.848 | 0.916 | 0.769 | 0.952 | 0.802 | 0.887 | 0.846 | 0.92 | 0.886 | 0.912
8 | NCI-H1993 | 1.08 | 0.965 | 0.875 | 0.955 | 0.944 | 0.857 | 0.855 | 0.776 | 0.528 | 1.05 | 0.913 | 1.05 | 0.893 | 1.01 | 0.766 | 0.78 | 0.825 | 0.734 | 0.643
9 | RERF-LC-KJ | 1.08 | 1.04 | 1.03 | 1.01 | 0.967 | 1.01 | 0.995 | 0.991 | 0.675 | 1.12 | 1.01 | 0.963 | 1.05 | 0.877 | 1.02 | 0.835 | 0.837 | 0.999 | 0.844
10 | NCI-H23 | 0.912 | 0.873 | 0.932 | 1.04 | 0.9 | 0.856 | 0.858 | 0.912 | 0.616 | 1.09 | 0.742 | 0.936 | 0.89 | 1.01 | 0.544 | 0.923 | 0.925 | 1.04 | 0.84
11 | HCC-366 | 1.04 | 0.964 | 0.993 | 0.997 | 0.897 | 1.06 | 1.03 | 0.993 | 0.926 | 1.07 | 0.839 | 0.977 | 1.07 | 1.07 | 0.927 | 0.92 | 0.891 | 0.964 | 0.851
12 | EMC-BAC-2 | 0.916 | 1.02 | 1.03 | 1.01 | 0.93 | 0.954 | 0.934 | 0.996 | 1.11 | 1.45 | 1.11 | 1.13 | 1.2 | 1.11 | 1.07 | 0.987 | 1.04 | 1.07 | 0.842
13 | NCI-H2405 | 0.972 | 0.919 | 0.984 | 1.02 | 0.877 | 0.987 | 0.973 | 1.01 | 0.812 | 0.86 | 0.746 | 0.959 | 0.993 | 0.788 | 1.1 | 1.04 | 1.06 | 1.03 | 1.04
14 | NCI-H1944 | 1.03 | 0.901 | 0.944 | 0.955 | 0.835 | 0.909 | 0.898 | 0.921 | 0.87 | 1.13 | 0.982 | 0.992 | 1.06 | 0.991 | 0.899 | 0.937 | 0.93 | 0.769 | 0.748
15 | EPLC-272H | 1.03 | 0.901 | 0.949 | 0.879 | 0.743 | 0.889 | 0.84 | 0.844 | 0.761 | 1.22 | 1.11 | 1.01 | 1.24 | 1.23 | 0.779 | 0.752 | 0.704 | 0.646 | 0.723
16 | EBC-1 | 1.04 | 0.933 | 0.941 | 0.99 | 1.07 | 0.934 | 0.885 | 0.923 | 0.645 | 0.394 | 0.474 | 0.415 | 0.452 | 0.371 | 0.1 | 0.106 | 0.104 | 0.0986 | 0.0948
